According to ChEMBL document CHEMBL3988442, “University of Dundee, Small-Polar-MMV Screening Library” (2021):
Values joined by “and” are separate entries in the source; they are usually repeats but may differ in a detail not shown here. Equal entries are not always repeated.

Legend:
Plasmodium falciparum [1] = assay: Plasmodium falciparum sporozoite viability assay; assay type: functional, organism-based; conditions: for IC50: Plasmodium falciparum
[2] = biological target: Sialic acid-binding Ig-like lectin 9 (Homo sapiens, UniProt Q9Y336); assay: Hs-Siglec9 ALPHAscreen SOP 20170721
Sequence of Sialic acid-binding Ig-like lectin 9 (Q9Y336 whole entry): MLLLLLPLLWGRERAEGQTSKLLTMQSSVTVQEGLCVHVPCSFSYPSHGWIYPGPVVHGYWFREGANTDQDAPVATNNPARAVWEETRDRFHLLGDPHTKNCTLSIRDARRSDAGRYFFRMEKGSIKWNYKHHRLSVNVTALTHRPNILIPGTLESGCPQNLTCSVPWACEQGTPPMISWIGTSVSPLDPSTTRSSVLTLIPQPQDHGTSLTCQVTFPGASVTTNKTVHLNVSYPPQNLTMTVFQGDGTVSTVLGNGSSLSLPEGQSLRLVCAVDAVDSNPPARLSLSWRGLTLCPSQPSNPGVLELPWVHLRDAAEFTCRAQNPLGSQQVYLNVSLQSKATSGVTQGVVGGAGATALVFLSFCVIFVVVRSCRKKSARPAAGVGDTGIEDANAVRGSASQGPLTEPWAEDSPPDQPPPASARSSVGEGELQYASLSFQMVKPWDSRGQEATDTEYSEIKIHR

Plasmodium falciparum [3] = assay: Calibr Malaria Delayed Death Assay SOP; assay type: functional, organism-based; conditions: for IC50: Plasmodium falciparum
ClpP1P2 = ClpP1P2 (Mycobacterium tuberculosis (strain ATCC 25618 / H37Rv), UniProt P9WPC3+P9WPC5); assay: in vitro assay to detect presence of AMC directly proportional to the activity of ClpP1P2. GHDDI collaboration.; assay type: functional
Sequence of ClpP1P2 (P9WPC5 whole entry): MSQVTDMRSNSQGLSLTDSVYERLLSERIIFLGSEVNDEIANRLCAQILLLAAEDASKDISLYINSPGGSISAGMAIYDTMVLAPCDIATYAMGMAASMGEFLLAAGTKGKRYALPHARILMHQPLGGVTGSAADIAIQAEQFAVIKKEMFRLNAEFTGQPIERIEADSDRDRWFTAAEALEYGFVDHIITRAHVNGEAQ
Sequence of ClpP1P2 (P9WPC3 whole entry): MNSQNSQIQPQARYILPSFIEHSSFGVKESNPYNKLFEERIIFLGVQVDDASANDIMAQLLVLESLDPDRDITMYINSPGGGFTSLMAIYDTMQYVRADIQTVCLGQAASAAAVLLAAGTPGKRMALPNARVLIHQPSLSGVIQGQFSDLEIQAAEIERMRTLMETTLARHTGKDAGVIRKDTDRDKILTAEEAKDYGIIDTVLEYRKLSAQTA

[4] = In vitro enzyme assay to detect hydrolysis of chlorophenol red-beta-D-[…] directly proportional to the number of Toxoplasma stably expressing beta-galactosidase; assay type: functional, organism-based, Toxoplasma gondii; conditions: for IC50: Toxoplasma gondii
[5] = biological target: T1, Coenzyme A biosynthesis bifunctional protein CoaBC (Mycobacterium tuberculosis (strain ATCC 25618 / H37Rv), UniProt P9WNZ1); assay: Biomol Green assay for MtCoaBC inhibitor, OD650 read; assay type: functional
T1 sequence (P9WNZ1 whole entry): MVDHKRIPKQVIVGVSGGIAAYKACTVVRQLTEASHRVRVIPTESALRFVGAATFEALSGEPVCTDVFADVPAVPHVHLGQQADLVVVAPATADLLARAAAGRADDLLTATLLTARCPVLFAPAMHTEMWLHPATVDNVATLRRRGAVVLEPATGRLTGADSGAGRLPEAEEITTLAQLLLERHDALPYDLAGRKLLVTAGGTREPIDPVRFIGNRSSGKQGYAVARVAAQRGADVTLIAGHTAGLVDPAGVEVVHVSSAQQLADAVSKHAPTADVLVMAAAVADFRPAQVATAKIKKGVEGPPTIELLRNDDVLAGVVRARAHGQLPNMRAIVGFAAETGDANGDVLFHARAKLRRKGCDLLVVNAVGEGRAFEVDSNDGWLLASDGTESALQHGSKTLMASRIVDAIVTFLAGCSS

[6] = microbe, parasite or virus in culture; conditions: Mycobacterium tuberculosis, 72 h, read-out: pIC50 (converted)
[7] = microbe, parasite or virus in culture; conditions: Mycobacterium tuberculosis, 96 h, read-out: pIC50 (converted)
Lysine--tRNA ligase = Lysine--tRNA ligase (Plasmodium falciparum (isolate 3D7), UniProt Q8IDJ8); assay: Pf-KRS-1 (Lysyl-RNA Synthetase-1, KRS-1, cytosolic KRS) from Plasmodium falciparum. Inhibitor assay, 384 well plate, luminescence read.; assay type: functional
Sequence of Lysine--tRNA ligase (Q8IDJ8 whole entry): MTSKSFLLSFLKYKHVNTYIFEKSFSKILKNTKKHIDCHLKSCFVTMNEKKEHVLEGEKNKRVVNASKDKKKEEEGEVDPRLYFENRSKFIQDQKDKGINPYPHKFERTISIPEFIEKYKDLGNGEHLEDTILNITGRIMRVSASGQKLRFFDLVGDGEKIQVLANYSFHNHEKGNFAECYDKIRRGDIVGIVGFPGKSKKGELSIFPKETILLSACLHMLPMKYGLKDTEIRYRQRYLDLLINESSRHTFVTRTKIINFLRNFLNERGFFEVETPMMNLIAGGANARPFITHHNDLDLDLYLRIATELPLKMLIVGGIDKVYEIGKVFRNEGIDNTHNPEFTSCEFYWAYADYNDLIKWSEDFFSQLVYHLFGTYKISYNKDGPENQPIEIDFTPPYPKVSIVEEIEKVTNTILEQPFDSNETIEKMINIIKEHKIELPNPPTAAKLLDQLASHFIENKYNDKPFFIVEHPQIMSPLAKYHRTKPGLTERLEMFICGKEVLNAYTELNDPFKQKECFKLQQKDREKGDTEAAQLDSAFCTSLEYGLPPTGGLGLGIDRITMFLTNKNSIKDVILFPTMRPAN

[8] = biological target: Polyketide synthase Pks13 (Mycobacterium tuberculosis (strain ATCC 25618 / H37Rv), UniProt I6X8D2); assay: Mycobacterium tuberculosis Polyketide synthase 13 Thioesterase (PKS13); assay type: functional
Sequence of Polyketide synthase Pks13 (I6X8D2 whole entry): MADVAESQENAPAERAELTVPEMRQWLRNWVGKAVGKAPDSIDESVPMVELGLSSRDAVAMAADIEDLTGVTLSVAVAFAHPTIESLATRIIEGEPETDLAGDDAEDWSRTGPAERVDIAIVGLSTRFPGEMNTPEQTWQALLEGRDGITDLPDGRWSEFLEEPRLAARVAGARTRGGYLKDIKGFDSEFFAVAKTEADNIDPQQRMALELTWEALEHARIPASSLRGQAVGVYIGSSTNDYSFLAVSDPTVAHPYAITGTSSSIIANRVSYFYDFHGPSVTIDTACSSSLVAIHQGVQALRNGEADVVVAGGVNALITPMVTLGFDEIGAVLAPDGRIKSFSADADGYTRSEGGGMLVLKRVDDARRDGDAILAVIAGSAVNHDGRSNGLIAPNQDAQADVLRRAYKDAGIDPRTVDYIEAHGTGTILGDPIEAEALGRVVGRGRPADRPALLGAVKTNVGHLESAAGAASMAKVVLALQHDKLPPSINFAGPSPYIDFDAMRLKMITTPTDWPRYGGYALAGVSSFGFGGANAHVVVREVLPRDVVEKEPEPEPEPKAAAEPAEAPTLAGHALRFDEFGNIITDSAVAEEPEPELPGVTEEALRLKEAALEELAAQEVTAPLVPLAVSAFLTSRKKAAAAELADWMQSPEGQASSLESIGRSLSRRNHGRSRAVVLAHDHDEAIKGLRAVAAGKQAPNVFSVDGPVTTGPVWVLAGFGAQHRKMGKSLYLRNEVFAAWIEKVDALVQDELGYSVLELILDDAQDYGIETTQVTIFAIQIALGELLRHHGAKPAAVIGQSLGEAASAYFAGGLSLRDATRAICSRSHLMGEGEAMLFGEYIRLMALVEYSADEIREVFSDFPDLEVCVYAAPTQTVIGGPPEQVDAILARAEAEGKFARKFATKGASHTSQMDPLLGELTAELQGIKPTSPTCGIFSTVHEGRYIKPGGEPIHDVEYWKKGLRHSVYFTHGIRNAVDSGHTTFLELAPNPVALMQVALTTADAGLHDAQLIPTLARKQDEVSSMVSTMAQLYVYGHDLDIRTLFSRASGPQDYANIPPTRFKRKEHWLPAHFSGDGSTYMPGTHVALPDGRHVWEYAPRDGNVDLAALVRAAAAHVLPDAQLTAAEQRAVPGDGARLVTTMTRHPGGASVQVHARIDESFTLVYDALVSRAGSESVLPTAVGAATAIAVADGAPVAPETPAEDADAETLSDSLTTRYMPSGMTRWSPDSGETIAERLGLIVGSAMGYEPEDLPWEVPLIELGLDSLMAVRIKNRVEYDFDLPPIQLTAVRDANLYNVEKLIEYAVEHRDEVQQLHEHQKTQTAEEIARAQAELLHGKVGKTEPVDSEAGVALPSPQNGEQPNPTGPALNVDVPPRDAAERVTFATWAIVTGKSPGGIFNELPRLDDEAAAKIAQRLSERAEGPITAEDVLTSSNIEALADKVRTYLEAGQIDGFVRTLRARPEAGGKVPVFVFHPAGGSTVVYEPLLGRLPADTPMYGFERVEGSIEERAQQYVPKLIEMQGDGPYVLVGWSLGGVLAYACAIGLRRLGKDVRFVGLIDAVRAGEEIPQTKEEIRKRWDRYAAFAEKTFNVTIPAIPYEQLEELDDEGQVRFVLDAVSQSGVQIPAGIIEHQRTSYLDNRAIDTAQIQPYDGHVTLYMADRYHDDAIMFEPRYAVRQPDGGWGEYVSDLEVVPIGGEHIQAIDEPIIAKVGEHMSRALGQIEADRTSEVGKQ

SMILES	pIC50 (Plasmodium falciparum [1])	IC50 (Plasmodium falciparum [1]) [µM]	IC50 [2]	further results
COCc1noc(-c2ccc(N3CCC[C@H]3CO)nc2)n1	7.269	0.0602		
CC(C)C(=O)N1CCN(Cc2csc(-c3ccccn3)n2)CC1	5.915	0.965		
CN1CCOC(CNC(=O)CCCOc2ccccc2F)C1 (stereo unspecified)	5.757 and 6.214			
Cc1nnc(CN(C)Cc2nc3c(s2)CCCC3)o1	5.52	3.56		
CCn1cc(NC(=O)Nc2ccc3c(c2)OCCO3)cn1	7.305 and 6.856			
COc1ccc(C(C)NCc2ccsc2)cc1Cn1cccn1 (stereo unspecified)			> 30.2 µM	pIC50 (Plasmodium falciparum [3]): 6.257; IC50 (Plasmodium falciparum [3]): 0.477 µM
FC(F)(F)c1cc(C2CCN(c3cnccn3)CC2)n2ccnc2n1			> 30.2 µM	IC50 (ClpP1P2): > 100 µM
COCCNC(=O)Nc1cc2c(cc1SC)OCCO2	6.283	0.555		
CN(C)CC(C)(O)CNC(=O)Nc1sc2ccccc2c1Cl (stereo unspecified)	5.506	2.69		
COc1ccc2cc(C3CN(C(=O)CCNC(C)=O)CCO3)ccc2c1 (stereo unspecified)	7.142	0.0486		
CN1CCCC1CCn1ccnc1-c1nc(-c2ccccc2)no1 (stereo unspecified)	6.882	0.0716		
c1ccc2sc(CN3CCOC(Cn4cccn4)C3)nc2c1 (stereo unspecified)	6.078 and 6.413			
CN1CCN(C2CCN(c3cnc4ccccc4n3)CC2)C1=O	7.03 and 7.343			
c1ccc(-c2noc(CN3CCc4cncnc4C3)n2)nc1	5.93 and 5.587			
Cc1c(F)cc(C(=O)O)cc1S(=O)(=O)Nc1ccc2c(c1)OCCO2	5.599	3.79		
COc1c(C(=O)NCC(C)C)nnn1Cc1ccccc1			> 30.2 µM	IC50 [4]: > 50.1 µM
c1cc(-c2noc(CN3CCc4c(ncn4C4CC4)C3)n2)cs1	5.546	2.47		
c1ccc2sc(CN3CCOC(Cn4cncn4)C3)nc2c1 (stereo unspecified)	6.123	0.621		
O=C(CCn1cccn1)NS(=O)(=O)N1CCCc2ccccc21	6.348	0.495		
Cc1csc(NC(=O)c2cnc(C3CCCN(C)C3)cn2)n1 (stereo unspecified)	5.674 and 6.096			
COCC1CN(Cc2ccsc2)Cc2cnn(C)c21 (stereo unspecified)			> 30.2 µM	IC50 [5]: > 30.2 µM
CCc1n[nH]c(C(=O)NCCn2nccc2C)c1C		> 10.5		

SMILES	pIC50 (Plasmodium falciparum [1])	IC50 (Plasmodium falciparum [1]) [µM]	IC50 [2]	further results
O=C(NCCNc1cc(N2CCCC2)cnn1)Nc1ccccc1F	6.092	0.819		
CN1CCOC(C(=O)Nc2ccc3c(c2)nc(C(C)(C)C)n3C)C1 (stereo unspecified)	7.552	0.0169		
COc1c(C(=O)NCC2CCCO2)nnn1Cc1ccccc1 (stereo unspecified)			> 30.2 µM	IC50 [4]: > 50.1 µM
CO[C@H]1C[C@@H](O)C12CCN(C(=O)CCCOc1ccccc1)CC2	6.089 and 6.557			
CC(C)(C)n1ncc2c(=O)n(CC(=O)NCc3ccccc3Cl)cnc21	7.103	0.103		
CCn1cc(C(=O)N2CCOC(c3nc(-c4cccs4)no3)C2)cn1 (stereo unspecified)	5.925 and 5.539			
O=C(Nc1cccc(Cl)c1)c1nn(C2CCS(=O)(=O)C2)c2c1CCCC2 (stereo unspecified)	5.123	8.15		
O=C(Nc1ccc(Cl)cn1)c1nn(C2CCS(=O)(=O)C2)c2c1CCCC2 (stereo unspecified)	5.512 and 5.897			
CC(C)(C)c1ncc(C(=O)NCCSc2ccccn2)c(O)n1	7.35	0.0632		
COc1cc(C)sc1C(=O)N1CCC(Nc2cccnc2)CC1			> 30.2 µM	IC50 [6]: > 50.1 µM; IC50 [7]: > 50.1 µM
Cc1cc(C(=O)N2CCCC(c3cc(=O)nc4n3CCC4)C2)on1 (stereo unspecified)			> 30.2 µM	IC50 [5]: > 30.2 µM
CCCc1cc(CNC2CCN(c3nc4ccccc4s3)CC2)on1	5.685	1.84		
CC(=O)Nc1nc(C(=O)N2CCCC(n3cncn3)C2)cs1 (stereo unspecified)	5.727	3.37		
CCC(=O)NC1CCCN(C(=O)Nc2cc(-c3ccccc3)on2)C1 (stereo unspecified)	6.751	0.187		
O=C(Cc1ccc2c(c1)OCCO2)N1CCCC(n2cccn2)C1 (stereo unspecified)	< 4.98 and 5.311			
CCOCCCNC(=O)c1nnn(Cc2ccccc2)c1OC			> 30.2 µM	IC50 [4]: > 50.1 µM
NC(=O)c1ccc(NC(=O)Cn2cc(I)cn2)cc1	5.308	3.07		
Clc1ccc2nc(N3CCC(NCCCC4CCOC4)CC3)sc2c1 (stereo unspecified)	5.724	3.77		
Cc1nc(COc2ccc(OC3CCCCNC3=O)cc2)oc1C (stereo unspecified)	7.451	0.039		
Cn1cnnc1C1CCN(C(=O)CCCOc2ccccc2F)CC1	6.053	1.3		
O=C(NCCc1nncn1C1CC1)c1cc2ccccn2c1			> 30.2 µM	IC50 (ClpP1P2): > 100 µM
CC(C)c1n[nH]c(C(=O)Nc2ccnn2C(C)C)c1Br	6.017	0.97		

SMILES	pIC50 (Plasmodium falciparum [1])	IC50 (Plasmodium falciparum [1]) [µM]	IC50 [2]	further results
c1ccc(-c2nc(CN3CCc4c(ncn4C4CC4)C3)cs2)cc1	5.414	2.99		
COc1c(C(=O)NCc2cnn(C)c2C)nnn1Cc1ccccc1			> 30.2 µM	IC50 [4]: > 50.1 µM
c1cnc(N2CCC3(CCN(CC4CCOC4)CC3)CC2)nc1 (stereo unspecified)			> 30.2 µM	IC50 (Lysine--tRNA ligase): > 50.1 µM
CC(C)(C)n1ncc2c1CCCC2NCc1ccc2c(c1)OCCO2 (stereo unspecified)	6.564	0.411		
Cc1cncc(NC(=O)c2ccc(CN3CC[C@H](O)C3)cc2)c1	6.801	0.0802		
CCc1noc(CN(Cc2ccc3c(c2)OCO3)C2CCCC2)n1	5.474 and 5.085			
OCC1CCCN1c1cc(NCCc2ccccn2)ncn1 (stereo unspecified)	7.276	0.0517		
Cn1c(-c2cc3n(n2)CCCN(CC(=O)O)C3)nc2ccccc21	5.921 and 6.257			
Cn1ncc2c1C(COCC1CC1)CN(Cc1ccsc1)C2 (stereo unspecified)			> 30.2 µM	IC50 [7]: > 50.1 µM
CN1CC2(CCN(Cc3ccoc3)CC2)COc2ccccc2S1(=O)=O.O=C(O)C(F)(F)F			> 30.2 µM	pIC50 (Plasmodium falciparum [3]): 5.92; IC50 (Plasmodium falciparum [3]): 0.906 µM
FC(F)(F)c1cc(C2CCCN(c3cnccn3)C2)n2ccnc2n1 (stereo unspecified)			> 30.2 µM	IC50 (ClpP1P2): > 100 µM
CC(C)N1CCCC(c2cc(C(F)(F)F)nc3nccn23)C1 (stereo unspecified)			> 30.2 µM	IC50 (ClpP1P2): > 100 µM
Cc1cc(C(=O)NCc2cc(C)oc2C)no1			> 30.2 µM	IC50 [8]: > 100 µM
O=C1Nc2ccccc2CN(C/C=C/c2ccccc2)C12CCNC2 (stereo unspecified)			> 30.2 µM	pIC50 [4]: 4.701; IC50 [4]: 15 µM
O=C1Nc2ccccc2CN(CC2CCCC2)C12CCNC2 (stereo unspecified)			> 30.2 µM	IC50 [6]: 22.7 µM; IC50 [7]: > 50.1 µM
CCOC(=O)[C@H]1[C@@H](O)C(=O)N(C)C12CCN(C(=O)CC(C)C)CC2			> 30.2 µM	
CC(=O)N1Cc2ccnn2CC(C(=O)NCc2cccnc2)C1 (stereo unspecified)			> 30.2 µM	
CCn1nc(C)c(NC(=O)c2nnn(Cc3ccccc3)c2OC)c1C			> 30.2 µM	IC50 [4]: > 50.1 µM
CC(C)N(C)CC(=O)NCc1ccccc1N1CCN(C)CC1			> 30.2 µM	
CCN(CC)C(=O)c1nnn(Cc2ccccc2)c1OC			> 30.2 µM	
CN1CCCN(C[C@@H]2CN(c3nc(C(N)=O)cs3)C[C@@H]2CO)CC1			> 30.2 µM	
O=C(NCCc1nncn1C1CC1)C1SCCc2sccc21 (stereo unspecified)			> 30.2 µM	

SMILES	pIC50 (Plasmodium falciparum [1])	IC50 (Plasmodium falciparum [1]) [µM]	IC50 [2]	further results
CC(C)NC(=O)N1CCC2(CC1)COc1ccccc1S(=O)(=O)N(C)C2			> 30.2 µM	
CC(=O)NCCCSC1CCN(c2ccccc2Cl)C1=O (stereo unspecified)			> 30.2 µM	
CC(C)NC(=O)c1csc(NC2CC2)n1			> 30.2 µM	
COC(=O)C(O)C1CCN(CCc2ccc(C)cc2)CC1 (stereo unspecified)			> 30.2 µM	
Cc1cc(C(=O)N2CCCS2(=O)=O)c(C)o1			> 30.2 µM	
O=C(c1cscn1)N1CCO[C@H]2[C@@H](Oc3ccccn3)CC[C@@H]21			> 30.2 µM	
CCn1ncc2c1C(COC)CN(Cc1ccc(C)o1)C2 (stereo unspecified)			> 30.2 µM	
O=c1[nH]nc(-c2cccs2)c2sc(N3CCOCC3)nc12			> 30.2 µM	
CCn1c(C)cc(C(=O)N2CCC(Nc3cccnn3)CC2)c1C			> 30.2 µM	
Cc1cc(S(=O)(=O)NCC(C)(C)N)c(F)cc1F			> 30.2 µM	
Cc1oc(C)c(C(=O)Nc2ccccn2)c1C			> 30.2 µM	
CCc1cc(N2CCCC(c3noc(CC)n3)C2)ncn1 (stereo unspecified)			> 30.2 µM	
CCOC(=O)[C@@H]1[C@@H](OC)C(=O)N(C)C12CCN(C(=O)C(CC)CC)CC2			> 30.2 µM	
CCn1nnc2c1C(COC)CN(Cc1ccsc1)C2 (stereo unspecified)			> 30.2 µM	
CCn1c(C)cc(C(=O)N2CCC(NC(=O)c3cc(C)no3)CC2)c1C			> 30.2 µM	
Cc1nc(C)c(C(=O)N2CCC(Nc3cccnc3)CC2)s1			9.22 µM and 7.13 µM and 9.36 µM and 3.87 µM	
CC(C)n1cnnc1C1CCCN(S(=O)(=O)CCCC#N)C1 (stereo unspecified)			> 30.2 µM	
CCOc1cccc(C2CC(=O)NCc3nc(N4CCCC4)sc32)c1 (stereo unspecified)			> 30.2 µM	
COc1cc(C(=O)N2CCC(Nc3cccnc3)CC2)ccc1C			> 30.2 µM	
COc1c(C(=O)NCc2cccnc2)nnn1Cc1ccccc1			> 30.2 µM	IC50 [4]: > 50.1 µM
Cc1cc(CNC(=O)c2ccno2)c(C)o1			> 30.2 µM	
CC(c1ccc(Cl)cc1)N1CCN(CCNS(C)(=O)=O)CC1 (stereo unspecified)			> 30.2 µM	
